Measured values from patent US20110033946A1, “DETECTION OF SHORT-CHAIN FATTY ACIDS IN BIOLOGICAL SAMPLES” (HEMAQUEST PHARMACEUTICALS, INC., priority 2009, published 2011).
“And” between values parts separate entries of the source, which are not always exact repeats. Equal values may be shown once.

What was measured:
Type in all cases: physicochemical
[1] = Freeze/thaw stability in human urine; settings: stored at −70° C. and thawed, repeated twice, 0.3, 19 and 38 μg/ml
Description: The applicability of the testing methodology to analyze samples stored under different conditions was analyzed. First, to assess short-term stability of DMB in human urine, samples at 0.3, 19 and 38 μg/ml, 92.3% of DMB were maintained unextracted at room temperature and at bench-top light levels for six hours. […] Second, to assess freeze/thaw stability of DMB in human urine, samples at 0.3, 19 and 38 μg/ml, 92.3% of DMB were stored at −70° C. and thawed. This process was repeated twice and samples after each freezing were analyzed for DMB as described. For each concentration and each freezing/thawing sample, the % CV was no more than 15%.

[2] = Freeze/thaw cycle stability in dog plasma; settings: three freeze/thaw cycles at approximately −70° C.
Description: (§1) For the remaining validation tests, a calibration curve and triplicates QCs at the low, mid and high levels were analyzed with each sample set. The following samples were also analyzed either in conjunction with one of the precision and accuracy runs or in one of the additional validation runs: Samples from six lots of control dog plasma for specificity. Two concentration levels of unextracted QC-samples in triplicate (solvent standards) were analyzed for the evaluation of the recovery of sodium 2,2-dimethylbutyrate and DMV in dog plasma. Two levels of QC samples (Low QC and High QC in triplicate) were subjected to three freeze/thaw cycles at approximately −70° C. prior to extraction to evaluate freeze/thaw stability. Two levels of QC samples (Low QC and High QC in triplicate) were placed on the bench top for approximately 17 hours prior to extraction for the evaluation of the bench top stability. Triplicate low QC samples and triplicate high QC samples were stored for one month and three months in a freezer at approximately −70° C., and then extracted and analyzed to evaluate long term stability in dog plasma. Three aliquots of a dilution QC sample diluted 10-fold.
The stability of sodium 2,2-dimethylbutyrate in dog plasma was evaluated at approximately −70° C. for three cycles using QC-Low and QC-High samples in triplicate. The freeze time was at least 12 hours, with a minimum thaw time of one hour. The CV % values for the QC-Low and QC-High stability samples are 1.4% and 2.8%, respectively. To calculate the RE %, the measured mean concentration was compared to the nominal concentration. The RE % values for the QC-Low and QC-High stability samples are 1.9% and −8.1%, respectively.

[3] = Extract autosampler stability (human plasma extract); settings: for Extract autosampler stability, Mean concentration / Extract autosampler stability, RE % (mean vs nominal) / Extract autosampler stability, concentration found (replicate): at least 71 hours in autosampler, ambient
Description: The following samples were also analyzed either in conjunction with one of the precision and accuracy runs or in one of the additional validation runs. Samples from six lots of control human plasma for specificity. Samples from six lots of control human plasma fortified with internal standard for specificity. Two concentration levels of unextracted QC-samples in triplicate (solvent standards) were analyzed for the evaluation of the recovery of sodium 2,2-dimethylbutyrate and DMV in human plasma. Two levels of QC samples (Low QC and High QC in triplicate) were subjected to three freeze/thaw cycles at approximately −70° C. prior to extraction to evaluate freeze/thaw stability. Two levels of QC samples (Low QC and High QC in triplicate) were placed on the bench top for approximately 17 hours prior to extraction for the evaluation of the bench top stability. Triplicate low QC samples and triplicate high QC samples were stored for one month and three months in a freezer at approximately −70° C., and then extracted and analyzed to evaluate long term stability in human plasma. Two levels of extracted QC samples (Low QC and High QC) were re-analyzed after approximately 71 hours in the autosampler at room temperature to evaluate the extract autosampler stability. Two levels of extracted QC samples (Low QC and High QC) were re-analyzed after approximately 8 hours in the freezer at approximately −20° C. to evaluate the extract freeze stability. Three aliquots of a dilution QC sample diluted 10-fold. Triplicate dilutions of the old stock solution (stored at approximately 4° C.) and new stock solutions prepared at intervals of two weeks and one month. Statistical calculations in the report tables were calculated from unrounded concentration values taken directly from the raw data. The concentration values were rounded for display purposes.
After extraction, the QC samples were analyzed and left in the autosampler for at least 71 hours, then re-injected onto the LC-MS/MS. Triplicate QC-Low and QC-High samples were analyzed for the autosampler stability determination. The CV % values for the QC-Low and QC-High stability samples are 7.5% and 6.4%, respectively. To calculate the RE %, the measured mean concentration was compared to the nominal concentration. The RE % values for the QC-Low and QC-High stability samples are 1.9% and 4.6%, respectively.

[4] = Long-term freezer stability in dog plasma; settings: approximately −70° C.
Description: as §1, with “10-fold. QC-Low and QC-High plasma samples, which had been stored in a freezer at approximately −70° C. for one month and three months (99 days), were extracted in triplicate and analyzed. All CV % values and RE % values are within the acceptance criteria (≦15% and ±15% respectively). Therefore, sodium 2,2-dimethylbutyrate can be considered stable in dog plasma at approximately −70° C. for at least […].” for “10-fold.”

[5] = 1 Month Interval, QC-High, nominal 40.0 μg/mL
[6] = 1 Month Interval, QC-Low, nominal 0.60 μg/mL
[7] = 3 Month Interval (99 days), QC-High, nominal 40.0 μg/mL
[8] = 3 Month Interval (99 days), QC-Low, nominal 0.60 μg/mL

% CV after freeze/thaw [1]: no more than 15%
Stability after freeze/thaw cycles [2]: stable
Freeze/thaw cycle stability, Mean concentration ([2]; QC-High, nominal 40.0 μg/mL): 36.8 µg/mL
Freeze/thaw cycle stability, RE % (mean vs nominal) ([2]; QC-High, nominal 40.0 μg/mL): −8.1%
Freeze/thaw cycle stability, concentration found (replicate) ([2]; QC-High, nominal 40.0 μg/mL): 36.2 μg/mL (2×) and 37.9 μg/mL
Freeze/thaw cycle stability, Mean concentration ([2]; QC-Low, nominal 0.60 μg/mL): 0.612 µg/mL
Freeze/thaw cycle stability, RE % (mean vs nominal) ([2]; QC-Low, nominal 0.60 μg/mL): 1.9%
Time stable in the extract in the autosampler ([3]; ambient storage in the autosampler): at least 71 hours
Extract autosampler stability, Mean concentration ([3]; QC-High, nominal 40.0 μg/mL): 41.8 µg/mL
Extract autosampler stability, RE % (mean vs nominal) ([3]; QC-High, nominal 40.0 μg/mL): 4.6%
Extract autosampler stability, concentration found (replicate) ([3]; QC-High, nominal 40.0 μg/mL): 42.9 µg/mL and 43.8 µg/mL and 38.8 µg/mL
Extract autosampler stability, Mean concentration ([3]; QC-Low, nominal 0.60 μg/mL): 0.611 µg/mL
Extract autosampler stability, RE % (mean vs nominal) ([3]; QC-Low, nominal 0.60 μg/mL): 1.9%
Time stable in freezer [4]: at least 99 days
Long-term freezer stability, Mean concentration [4, 5]: 36.1 µg/mL
Long-term freezer stability, RE % (mean vs nominal) [4, 5]: −9.9%
Long-term freezer stability, concentration found (replicate) [4, 5]: 36.4 µg/mL and 36.3 µg/mL and 35.5 µg/mL
Long-term freezer stability, Mean concentration [4, 6]: 0.575 µg/mL
Long-term freezer stability, RE % (mean vs nominal) [4, 6]: −4.2%
Long-term freezer stability, Mean concentration [4, 7]: 35.0 µg/mL
Long-term freezer stability, RE % (mean vs nominal) [4, 7]: −12.5%
Long-term freezer stability, concentration found (replicate) [4, 7]: 36.1 µg/mL and 37.1 µg/mL and 31.7 µg/mL
Long-term freezer stability, Mean concentration [4, 8]: 0.61 µg/mL
Long-term freezer stability, RE % (mean vs nominal) [4, 8]: 1.0%
SMILES: CCC(C)(C)C(=O)[O-].[Na+] [Sodium 2,2-Dimethylbutyrate]
Freeze/thaw cycle stability, concentration found (replicate) ([2]; QC-Low, nominal 0.60 μg/mL): 0.603 µg/mL and 0.620 µg/mL and 0.612 µg/mL
Extract autosampler stability, concentration found (replicate) ([3]; QC-Low, nominal 0.60 μg/mL): 0.663 µg/mL and 0.575 µg/mL and 0.596 µg/mL
Long-term freezer stability, concentration found (replicate) [4, 6]: 0.586 µg/mL and 0.567 µg/mL and 0.572 µg/mL
Long-term freezer stability, concentration found (replicate) [4, 8]: 0.629 µg/mL and 0.621 µg/mL and 0.568 µg/mL
